From ChEMBL document CHEMBL1156442 (J Biol Chem, 2007) come the findings set out here.

Data set [1] in a line: Octanol-water partition coefficient, log KOW of the compound. In kind it is physicochemical. The settings on record: read-out: log K.
Data set [2] can be described thus: Chemical stability in aqueous solution assessed as hydrolysis after 4 hrs. The settings on record: read-out: Activity. In kind it is physicochemical.
The subject of data set [3] is Rana temporaria. Put plainly: Anesthetic potency in Rana temporaria tadpoles assessed as loss of righting reflex for 60 mins. The settings on record: 1 h.
Data set [4] is described as follows: Binding affinity to human serum albumin.
Data set [5] has as its system Rattus norvegicus. Description: Anesthetic potency in Sprague-Dawley rat assessed as loss of righting reflex. It is filed as functional.
For data set [6], the target named is T1, Gamma-aminobutyric acid receptor subunit alpha-1 (Homo sapiens, UniProt P14867+P18507+P47870).
T1 sequence (P14867 whole entry): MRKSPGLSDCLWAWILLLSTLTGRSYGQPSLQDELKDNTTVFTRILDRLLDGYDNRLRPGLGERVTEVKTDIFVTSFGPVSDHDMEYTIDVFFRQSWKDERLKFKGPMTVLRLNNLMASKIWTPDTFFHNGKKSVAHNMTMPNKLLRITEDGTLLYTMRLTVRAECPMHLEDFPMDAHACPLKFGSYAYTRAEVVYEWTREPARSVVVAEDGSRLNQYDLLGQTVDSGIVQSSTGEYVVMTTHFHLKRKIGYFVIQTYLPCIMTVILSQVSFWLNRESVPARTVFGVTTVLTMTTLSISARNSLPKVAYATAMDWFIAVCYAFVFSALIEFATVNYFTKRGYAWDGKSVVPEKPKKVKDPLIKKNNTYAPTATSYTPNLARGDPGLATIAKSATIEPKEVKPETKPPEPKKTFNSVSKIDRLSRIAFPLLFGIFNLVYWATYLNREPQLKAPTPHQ
Description: Activity at human GABAA alpha-1-beta-2-gamma-2s receptor expressed in HEK293 cells assessed as effect on GABA-induced current at 3 uM by whole cell patch-clamp technique. In kind it is cell-based.

Turning to `COC(=O)c1cncn1C(C)c1ccccc1` (stereo unspecified) [METOMIDATE], the logP in data set [1] was 2.28. Take `CC(c1ccccc1)n1cncc1C=O` (stereo unspecified): in data set [1], the logP is 1.77. Regarding `CC(c1ccccc1)n1cncc1C(=O)N=[N+]=[N-]` (stereo unspecified), the degraded at 4 h in data set [2] is 10%. Besides, the logP in data set [1] turned out to be 2.71. Regarding `CC(c1ccccc1)n1cncc1CO` (stereo unspecified), the logP in data set [1] turned out to be 1.28. For the molecule `CCOC(=O)c1cncn1[C@@H](C)c1ccccc1` [S-ETOMIDATE], the EC50 in data set [3] amounted to 36 µM. `C[C@H](c1ccccc1)n1cncc1C(=O)N=[N+]=[N-]` came in with a Kd in data set [4] of 121 µM. The median effective dose (ED50) in data set [5] came to 1.7 mg/kg. Also, in data set [6], the EC50 was found to be 11 µM. As to `CCOC(=O)c1cncn1[C@H](C)c1ccccc1` [ETOMIDATE], the affinity in data set [4], expressed as Kd, was 176 µM. Also, in data set [1], the logP was determined as 2.89.
